Among the data in patent US7148193B2, “Compounds that bind to growth hormone receptor” (Antyra, Inc., priority 1997, dated 2006) are antagonistic activity and agonistic activity values, retold here.

Where a SMILES comes first, the peptide text is derived from it. Bridges are numbered along the chain shown (N, C = ends).

The experiment addresses T1, rat growth hormone receptor (Rattus norvegicus, UniProt P16310).
T1 construct: expressed in transfected cells; host or cells: FDC-1 cells
T1 sequence (P16310 19-638): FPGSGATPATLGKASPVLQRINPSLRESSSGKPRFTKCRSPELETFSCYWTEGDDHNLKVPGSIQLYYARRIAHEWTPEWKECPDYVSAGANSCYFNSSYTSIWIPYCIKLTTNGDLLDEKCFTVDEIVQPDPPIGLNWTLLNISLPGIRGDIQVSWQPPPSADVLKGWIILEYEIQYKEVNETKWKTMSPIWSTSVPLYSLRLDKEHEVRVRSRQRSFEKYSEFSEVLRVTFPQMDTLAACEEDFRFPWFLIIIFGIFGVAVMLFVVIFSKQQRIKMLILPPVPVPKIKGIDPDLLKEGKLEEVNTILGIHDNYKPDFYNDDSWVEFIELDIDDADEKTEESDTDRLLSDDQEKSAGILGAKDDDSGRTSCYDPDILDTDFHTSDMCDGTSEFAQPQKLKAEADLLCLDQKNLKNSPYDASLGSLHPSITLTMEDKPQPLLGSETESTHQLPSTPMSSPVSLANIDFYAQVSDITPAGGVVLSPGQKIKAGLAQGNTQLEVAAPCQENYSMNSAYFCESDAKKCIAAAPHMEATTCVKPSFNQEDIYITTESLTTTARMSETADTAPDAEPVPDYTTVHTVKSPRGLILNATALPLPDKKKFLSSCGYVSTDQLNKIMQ
The experiment is described as follows: Cell proliferation assay (WST-1) in FDC-1 cells stably transfected with rat growth hormone receptor. The format is cell-based. The note with it: 18 h. Here is the method: Cells transfected with rat GHR (50,000 cells per well) were incubated with either bovine GH, H5 peptide (SEQ ID NO:8), 447 peptide (SEQ ID NO:11) or control peptide (SEQ ID NO:10) for 18 h at 37° C. Experiments were done in triplicate. Background signal A450=0.15. […] Cells transfected with rat GHR (50,000 cells per well) containing […] bovine GH were incubated with either control peptide (SEQ ID NO:10), H5 peptide (SEQ ID NO:8) or 447 peptide (SEQ ID NO:11) for 18 h at 37° C. Proliferation was measured using WST-1 reagent. The “*” symbol corresponds to the A450 measurement for the cells incubated without GH.
Agonistic and antagonistic activities of the two peptides, H5WT (SEQ ID NO:8) and bP#447 ([…]), were tested in FDC-1 cells stably transfected with the gene encoding the rat growth hormone receptor. The resulting cell line required either IL-3 or GH for growth. The cells were grown in RPMI 1640 medium containing 10% FCS (fetal calf serum) and 20 units of IL-3 per ml. […] activity assays were performed in a total volume of 100 μl in 96 well plates (flat bottom). Cells were seeded at 50,000 cells/well in 50 μl RPMI 1640 (without IL-3) medium containing horse serum instead of FCS to reduce background. To duplicate wells, 50 μl of either growth hormone or peptides at different concentrations was added, followed by incubation for 18 h in a CO2 incubator. Assays to measure the antagonistic activity were performed in a total volume of 100 μl in 96 well plates. Either H5WT peptide (SEQ ID NO:8), bP#447 peptide (SEQ ID NO:11), or control peptide (SEQ ID NO:10) was added to cells containing 0.003 μM of bovine GH and incubated at 37° C. for 18 h in a CO2 incubator. Proliferation assays were performed using WST-1 reagent. The WST-1 tetrazolium salt (light red color) is cleaved to formazan (dark red color) by the succinate-tetrazolium reductase system, which is active only in viable cells. […] Ten microliters of WST-1 reagent was added and the plates incubated for 1–4 h 37° C. Proliferation was measured by absorbance at 450 nm.

As for `CC(C)C[C@@H]1NC(=O)[C@H](CO)NC(=O)[C@H](CCC(N)=O)NC(=O)[C@@H](NC(=O)[C@H](CC(C)C)NC(=O)[C@H](CC(=O)O)NC(=O)[C@H](CCCCN)NC(=O)[C@H](Cc2ccc(O)cc2)NC(=O)[C@@H](N)CC(=O)O)CSSC[C@@H](C(=O)N[C@@H](C)C(=O)N[C@@H](CCCCN)C(=O)N[C@@H](CCCCN)C(=O)O)NC(=O)[C@H](Cc2c[nH]c3ccccc23)NC(=O)CNC(=O)[C@H](C)NC(=O)[C@H](CC(C)C)NC(=O)[C@H](Cc2c[nH]c3ccccc23)NC(=O)CNC(=O)[C@@H]2CCCN2C(=O)[C@H](Cc2ccc(O)cc2)NC(=O)[C@H]([C@@H](C)O)NC(=O)[C@H](C(C)C)NC(=O)CNC1=O` [H5] (H-DYKDLCQSLGVTYPGWLAGWCAKK-OH; disulfide 6-21; N-terminus and C-terminus assumed), under “cells with 0.003 μM bovine GH, at the concentrations tested”, the antagonistic activity result is reported as “no antagonistic activity”. Further, the agonistic activity result (no GH added, WST-1 A450) is on record as “partial agonistic activity”.
